Laboratory results: publication PMC4766503, “A novel peptide with potent and broad-spectrum antiviral activities against multiple respiratory viruses” (Scientific Reports, 2016)
Peptide text beside a SMILES is read from it.

Experiments:
[1] = test system: endosomal acidification in H1N1-infected MDCK cells; format: cell-based, canine
[2] = test system: H1N1 virus; details: for 50% inhibitory concentration (IC50) against H1N1: virus, 1 h
[3] = test system: SARS-CoV
[4] = test system: H7N9 virus; parameters: species or system BALB/c mice; details: mouse, in vivo
[5] = target: MERS-CoV S2 (Middle East respiratory syndrome-related coronavirus, UniProt K9N5Q8)
Sequence of MERS-CoV S2 (K9N5Q8 752-1353 limits assumed): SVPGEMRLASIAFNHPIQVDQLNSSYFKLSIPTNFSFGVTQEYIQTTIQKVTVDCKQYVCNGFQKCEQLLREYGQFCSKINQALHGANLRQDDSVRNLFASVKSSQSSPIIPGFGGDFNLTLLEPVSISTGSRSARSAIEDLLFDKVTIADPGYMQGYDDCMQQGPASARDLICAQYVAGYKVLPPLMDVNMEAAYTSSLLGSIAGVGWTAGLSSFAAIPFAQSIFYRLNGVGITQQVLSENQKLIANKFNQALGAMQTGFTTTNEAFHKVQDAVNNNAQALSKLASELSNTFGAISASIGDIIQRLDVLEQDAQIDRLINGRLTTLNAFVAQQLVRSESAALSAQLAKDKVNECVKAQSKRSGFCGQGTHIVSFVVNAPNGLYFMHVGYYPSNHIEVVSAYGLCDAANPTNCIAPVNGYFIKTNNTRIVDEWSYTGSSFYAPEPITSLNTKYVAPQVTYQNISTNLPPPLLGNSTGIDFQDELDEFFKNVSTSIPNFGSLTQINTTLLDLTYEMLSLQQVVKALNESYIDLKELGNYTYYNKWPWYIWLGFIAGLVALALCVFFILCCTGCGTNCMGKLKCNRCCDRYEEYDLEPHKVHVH

[6] = synthetic P9, water
[7] = test system: MDCK cells; details: 24 h
[8] = test system: SARS-CoV; details: in vivo
[9] = test system: MERS-CoV
[10] = test system: influenza A virus H3N2, H5N1, H7N7 and H7N9; details: H7N7 and H7N9, 24 h
[11] = test system: H5N1 virus; parameters: species or system BALB/c mice; details: mouse, in vivo
[12] = test system: H1N1 viral NA
[13] = test system: H1N1 virus; parameters: species or system BALB/c mice; details: mouse, in vivo
[14] = in vivo
[15] = test system: HA-cell membrane fusion in 293FT cells expressing HA; details: low pH 5.0
[16] = target: MERS-CoV S1 (Middle East respiratory syndrome-related coronavirus, UniProt K9N5Q8)
Sequence of MERS-CoV S1 (K9N5Q8 18-751 limits assumed): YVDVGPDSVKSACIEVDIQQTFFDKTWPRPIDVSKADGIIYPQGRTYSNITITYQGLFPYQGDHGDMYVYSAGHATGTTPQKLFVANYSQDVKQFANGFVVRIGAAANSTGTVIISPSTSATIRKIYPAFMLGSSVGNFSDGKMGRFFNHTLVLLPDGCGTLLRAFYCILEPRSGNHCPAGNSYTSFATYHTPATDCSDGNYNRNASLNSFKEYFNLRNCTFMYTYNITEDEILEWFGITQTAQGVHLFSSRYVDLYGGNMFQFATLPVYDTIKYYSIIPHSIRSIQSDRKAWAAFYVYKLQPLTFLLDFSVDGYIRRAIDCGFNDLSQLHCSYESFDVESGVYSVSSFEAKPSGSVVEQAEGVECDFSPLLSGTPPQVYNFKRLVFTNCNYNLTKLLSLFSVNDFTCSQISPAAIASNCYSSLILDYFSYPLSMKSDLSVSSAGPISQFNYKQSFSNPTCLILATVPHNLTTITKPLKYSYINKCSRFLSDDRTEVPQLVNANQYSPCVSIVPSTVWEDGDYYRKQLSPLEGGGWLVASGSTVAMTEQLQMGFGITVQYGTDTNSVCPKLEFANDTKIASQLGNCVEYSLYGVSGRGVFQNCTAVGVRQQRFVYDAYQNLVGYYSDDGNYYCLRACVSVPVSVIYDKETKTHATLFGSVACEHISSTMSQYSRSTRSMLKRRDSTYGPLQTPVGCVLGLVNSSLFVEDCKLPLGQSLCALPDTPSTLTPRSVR

[17] = mouse, in vivo
[18] = target: H1N1 viral HA (Influenza A virus, UniProt C3W5S1)
Sequence of H1N1 viral HA (C3W5S1 entry or part of it, added parts left off): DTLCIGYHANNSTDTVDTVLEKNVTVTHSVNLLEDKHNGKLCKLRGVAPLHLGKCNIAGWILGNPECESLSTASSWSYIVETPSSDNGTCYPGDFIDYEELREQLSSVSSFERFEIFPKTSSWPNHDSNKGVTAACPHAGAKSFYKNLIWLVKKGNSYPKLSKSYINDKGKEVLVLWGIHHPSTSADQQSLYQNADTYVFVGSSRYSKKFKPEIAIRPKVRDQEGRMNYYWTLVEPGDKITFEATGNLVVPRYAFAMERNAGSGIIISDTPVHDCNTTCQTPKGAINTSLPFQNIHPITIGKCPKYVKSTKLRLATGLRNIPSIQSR

In the case of `CO/C1=C\C(C)=C\[C@@H](C)[C@@H](O)[C@@H](C)C/C(C)=C/C=C/[C@H](OC)[C@@H]([C@@H](C)[C@@H](O)[C@H](C)[C@@]2(O)C[C@@H](O)[C@H](C)[C@@H](C(C)C)O2)OC1=O` [Bafilomycin A1, reference compound], the “pH lowering (acidification) in endosomes” value [1] is reported as “acidification was abolished”.
For `Cl.N` [NH4Cl, ammonium chloride, reference compound], the “pH lowering (acidification) in endosomes” value [1] was “acidification was abolished”.
For `CC[C@H](C)[C@H](NC(=O)[C@H](C)NC(=O)CNC(=O)[C@@H](N)CC(N)=O)C(=O)N[C@@H](CS)C(=O)N[C@@H](Cc1c[nH]c2ccccc12)C(=O)NCC(=O)N1CCC[C@H]1C(=O)N[C@@H](CS)C(=O)N1CCC[C@H]1C(=O)N[C@H](C(=O)N[C@@H](C)C(=O)N[C@@H](Cc1ccccc1)C(=O)N[C@@H](CCCNC(=N)N)C(=O)N[C@@H](CCC(N)=O)C(=O)N[C@H](C(=O)NCC(=O)N[C@@H](CC(N)=O)C(=O)N[C@@H](CS)C(=O)NCC(=O)N[C@@H](Cc1c[nH]cn1)C(=O)N[C@@H](Cc1ccccc1)C(=O)N[C@@H](CCCCN)C(=O)N[C@H](C(=O)N[C@@H](CCCNC(=N)N)C(=O)N[C@@H](CS)C(=O)N[C@@H](CS)C(=O)N[C@@H](CCCCN)C(=O)N[C@H](C(=O)N[C@@H](CCCNC(=N)N)C(=O)N[C@@H](CC(=O)O)C(=O)N[C@@H](CCC(=O)O)C(=O)N[C@@H](CC(=O)O)C(=O)O)[C@@H](C)CC)C(C)C)[C@@H](C)CC)[C@@H](C)O` [Peptide P9-aci-1] (H-NGAICWGPCPTAFRQIGNCGHFKVRCCKIRDED-OH), the “50% inhibitory concentration (IC50) against H1N1” value [2] was > 100 µg/mL and the “pH lowering (acidification) in endosomes” value [1] was “unaffected”.
For `CC[C@H](C)[C@H](NC(=O)[C@H](C)NC(=O)CNC(=O)[C@@H](N)CC(N)=O)C(=O)N[C@@H](CS)C(=O)N[C@@H](Cc1c[nH]c2ccccc12)C(=O)NCC(=O)N1CCC[C@H]1C(=O)N[C@@H](CS)C(=O)N1CCC[C@H]1C(=O)N[C@H](C(=O)N[C@@H](C)C(=O)N[C@@H](Cc1ccccc1)C(=O)N[C@@H](CCCNC(=N)N)C(=O)N[C@@H](CCC(N)=O)C(=O)N[C@H](C(=O)NCC(=O)N[C@@H](CC(N)=O)C(=O)N[C@@H](CS)C(=O)NCC(=O)N[C@@H](Cc1c[nH]cn1)C(=O)N[C@@H](Cc1ccccc1)C(=O)N[C@@H](CCCCN)C(=O)N[C@H](C(=O)N[C@@H](CCCNC(=N)N)C(=O)N[C@@H](CS)C(=O)N[C@@H](CS)C(=O)N[C@@H](CCCCN)C(=O)N[C@H](C(=O)N[C@@H](CCCNC(=N)N)C(=O)O)[C@@H](C)CC)C(C)C)[C@@H](C)CC)[C@@H](C)O` [Peptide P9] (H-NGAICWGPCPTAFRQIGNCGHFKVRCCKIR-OH), the “inhibition of SARS-CoV infection” value [3] was “more than 95%”, the “IC50 against SARS-CoV” value ([3]; 24 h) was “about 5 μg/ml” and the “mice protected from lethal H7N9 challenge, prophylaxis” value [4] was 50%. The “mice protected from lethal H7N9 challenge, therapy” value [4] was 50%, the “binding to S2 of MERS-CoV” value [5] was “bound to S2” and the “solubility and stability in water” value [6] was “highly soluble and stable in water”. The “50% toxic concentration (TC50)” value [7] was 380 µg/mL, the “virus infection in mouse lungs” value [8] was “significantly inhibited” and the “inhibition of MERS-CoV infection” value [9] was “more than 95%”. For the same molecule, the “IC50 against MERS-CoV” value ([9]; 24 h) was “about 5 μg/ml”, the “IC50s against H3N2, H5N1, H7N7 and H7N9” value [10] was 1.5 to 4.8 µg/mL and the “mice protected from lethal H5N1 challenge, prophylaxis” value [11] was 44%. For the same molecule, the “mice protected from lethal H5N1 challenge, therapy” value [11] was 50%, the “binding to NA” value [12] was “not NA” and the “antiviral activity among short peptides” value [2] was “strongest antiviral activity”. For the same molecule, the “50% inhibitory concentration (IC50) against H1N1” value [2] was 1.2 µg/mL, the “mice protected from lethal challenge, P9 given 2 h before challenge” value [13] was 60% and the “mice protected from lethal challenge, P9 given 4 h before challenge” value [13] was 30%. For the same molecule, the “mice protected from lethal challenge, P9 given 8 h before challenge” value [13] was 20%, the “survival rate, prophylactic” value [13] was 100% and the “survival rate, therapeutic” value [13] was 60%. For the same molecule, the “viral loads in lung tissues” value [13] was “significantly lower”, the “P9 signal on surface of mouse bronchial tubes after administration” value [14] was “almost undetectable level” and the “HA-cell membrane fusion (polykaryon formation)” value [15] was “did not directly inhibit”. For the same molecule, the “binding to S1 of MERS-CoV” value [16] was “not S1”, the “food consumption or sickness” value [17] was “no obvious reduction of food consumption or sickness” and the “body weight loss, i.n.” value ([17]; 50 mg/kg) was “less than 10%”. The “body weight loss, i.p.” value ([17]; ip, 500 mg/kg) was “less than 10%”, the “pH lowering (acidification) in endosomes” value [1] was “acidification was abolished” and the “binding to HA” value [18] was “bound to HA”.
For `CC(=O)N[C@H]1[C@H]([C@H](O)[C@H](O)CO)OC(C(=O)O)=C[C@@H]1N=C(N)N` [Zanamivir, reference compound], the “mice protected from lethal H7N9 challenge, prophylaxis” value [4] was 60%, the “mice protected from lethal H7N9 challenge, therapy” value [4] was 70% and the “mice protected from lethal H5N1 challenge, prophylaxis” value [11] was 50%. For the same molecule, the “mice protected from lethal H5N1 challenge, therapy” value [11] was 60% and the “survival rate, therapeutic” value [13] was 80%.
